Test results from publication PMC5656836, “Distinct activation mechanisms trigger the trypanocidal activity of DNA damaging prodrugs” (Molecular Microbiology, 2017).
Read-outs that look alike come from different tables or passages of the source.

How the values were obtained:
L. major promastigotes = assay: Growth inhibition of L. major promastigotes (resazurin); type: cell-based; settings: for EC50: read-out: L. major EC50
T. cruzi epimastigotes = assay: Growth inhibition of T. cruzi epimastigotes (resazurin); type: cell-based; settings: for EC50: Trypanosoma cruzi, 336 h, read-out: T. cruzi EC50
[1] = tested on: bloodstream form T. brucei; assay: Growth inhibition of wild type / control bloodstream form T. brucei (resazurin); type: cell-based; settings: for T. brucei SI: Selectivity Index: fold difference in EC50 of THP‐1 line relative to parasite
[2] = tested on: T. brucei Tbsnm1 null mutants (ΔTbsnm1); assay: microbe, parasite or virus in culture; type: cell-based; settings: for EC50: Trypanosoma brucei, read-out: EC50 ΔTbsnm1
[3] = tested on: mouse peritoneal macrophages; assay: Toxicity to mouse peritoneal macrophages (cell counts, Giemsa); type: cell-based, BALB/c mice; settings: Peritoneal macrophage, 120 h, non‐cancerous primary cells, up to 5 days, read-out: EC50 towards mouse peritoneal macrophages
[4] = tested on: ΔTbsnm1 Tbntr++ T. brucei; type: cell-based
Wild type T. brucei = type: cell-based
RH1^RC1 T. brucei = assay: microbe, parasite or virus in culture; type: cell-based; settings: for EC50: read-out: EC50 RH1^RC1;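 for ratio (fold difference in EC50 between RH1^RC1 and wild type): resistant clone selected by stepwise exposure to the aziridinyl benzoquinone prodrug in culture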
[5] = tested on: T. brucei over expressing TbNTR (Tbntr++); assay: microbe, parasite or virus in culture; type: cell-based; settings: for EC50: Trypanosoma brucei, read-out: EC50 Tbntr++
[6] = tested on: T. brucei Tbntr heterozygote line; type: cell-based
[7] = tested on: differentiated THP‐1 cells; assay: Mammalian inhibition assay, differentiated THP-1 cells; type: cell-based; settings: Homo sapiens, 72 h; differentiated THP‐1 cells, 3 days; read-out: THP‐1 EC50
RH1^RC2 T. brucei = assay: microbe, parasite or virus in culture; type: cell-based; settings: read-out: EC50 RH1^RC2
[8] = tested on: T. brucei over expressing TbCPR2 (Tbcpr2++); assay: microbe, parasite or virus in culture; type: cell-based; settings: for EC50: Trypanosoma brucei, read-out: EC50 Tbcpr2++
[9] = Trypanosoma brucei, 72 h, read-out: T. brucei EC50
[10] = Leishmania major, 144 h, promastigotes, 6 days
[11] = Trypanosoma brucei, Table 2, parasites expressing wild type levels, read-out: EC50 Control
[12] = Trypanosoma brucei, Table 3, BSF T. brucei wild type, read-out: EC50 Wild type
[13] = Trypanosoma brucei, Table 4, wild type T. brucei, read-out: EC50 Control
[14] = Trypanosoma brucei, 72 h, bloodstream form, 3 days, Table 1, activity of some compounds previously reported (Hall et al., 2012), read-out: T. brucei EC50

In the case of `CCOC(=O)NC1=C(N2CC2)C(=O)C(NC(=O)OCC)=C(N2CC2)C1=O` [AZQ], the EC50 (L. major promastigotes; Leishmania major, 144 h) is reported as greater than 10000 nM, the EC50 (T. cruzi epimastigotes) is reported as 6000 ± 283 nM and the EC50 [1, 9] is reported as 8230 ± 272 nM.
In the case of `CC1=C(N2CC2)C(=O)C(CO)=C(N2CC2)C1=O` [RH1], the “Ratio of EC50 values ΔTbsnm1 / control” value [2] is reported as 0.26, the “Susceptibility of Tbsnm1 null mutants relative to wild type / control (fold more susceptible)” value [2] is reported as “threefold” and the EC50 [2] is reported as 5 ± 1 nM. The “L. major SI” value (L. major promastigotes) was less than 1, the EC50 (L. major promastigotes; [10]) was less than 100 nM and the “L. major EC50” value (L. major promastigotes; promastigotes, 6 days) was “high potency”. The EC50 (L. major promastigotes; promastigotes, 6 days) was 68 ± 1 nM, the EC50 [3] was less than 100 nM and the “Fold increase in susceptibility of ΔTbsnm1 Tbntr++ versus wild type” value [4] was 15 fold. The “T. cruzi SI” value (T. cruzi epimastigotes) was less than 33, the “Cells in G1/S phase (1N1K)” value (Wild type T. brucei) was 37% and the “Cells in G2/M phase (1N2K)” value (Wild type T. brucei) was 58%. The “Doubling time of resistant clones” value (RH1^RC1 T. brucei) was roughly 10.5 h, the “Fold less sensitive, RH1^RC lines versus controls” value (RH1^RC1 T. brucei) was roughly 4.5 fold and the “Fold less sensitive, RH1^RC lines versus wild type” value (RH1^RC1 T. brucei) was roughly 3.5 fold. For the same compound, the “ratio (fold difference in EC50 between RH1^RC1 and wild type)” value (RH1^RC1 T. brucei) was 3.3, the EC50 (RH1^RC1 T. brucei; Trypanosoma brucei) was 86 ± 3 nM and the EC50 (RH1^RC1 T. brucei) was 83 ± 2 nM. For the same compound, the “Fold difference in EC50 Tbntr++ relative to control” value [5] was 3 ± 1 (0.16 ), the “Susceptibility of TbNTR over expressing T. brucei relative to controls / wild type (fold more susceptible)” value [5] was “fivefold” and the EC50 [5] was 3 nM. The “T. brucei SI” value [1] was less than 5, the EC50 [1, 11] was 19 ± 1 nM and the EC50 [1, 12] was 25 ± 6 nM. For the same compound, the EC50 [1, 13] was 19 ± 1 nM, the inhibition at 0.005 µM ([1]; Trypanosoma brucei, 5 nM) was roughly 10% and the “Growth of wild type T. brucei” value ([1]; medium containing RH1 (40 nM), after 24 hrs) was “no growth”. For the same compound, the “EC50 of Tbntr heterozygote line relative to wild type (fold greater)” value [6] was “approximately 2.5 fold”, the EC50 [7] was less than 100 nM and the EC50 (RH1^RC2 T. brucei; Trypanosoma brucei) was 91 ± 11 nM. For the same compound, the EC50 (RH1^RC2 T. brucei) was 92 ± 1 nM, the “Fold difference in EC50 Tbcpr2++ relative to control” value [8] was 20 ± 3 (1.05) and the EC50 [8] was 20 nM.
In the case of `COC1=C(N2CC2)C(=O)C(OC)=C(N2CC2)C1=O` [ABQ6], the EC50 (L. major promastigotes; [10]) is reported as 664 ± 2 nM, the “T. cruzi SI” value (T. cruzi epimastigotes) is reported as 5 and the EC50 (T. cruzi epimastigotes; epimastigotes, 14 days) is reported as 205 ± 53 nM. For the same compound, the EC50 [1, 14] was 283 ± 41 nM and the EC50 [7] was 1070 ± 159 nM.
With `O=NN(CCCl)C(=O)NC1CCCCC1` [Lomustine] the “ratio (fold difference in EC50 between RH1^RC1 and wild type)” value (RH1^RC1 T. brucei) was 0.9, the EC50 (RH1^RC1 T. brucei; Trypanosoma brucei) was 15500 ± 665 nM and the EC50 [1, 12] was 16600 ± 443 nM.
For `C[C@@H]1CN1C1=CC(=O)C(N2C[C@H]2C)=CC1=O` [ABQ23], the “Ratio of EC50 values ΔTbsnm1 / control” value [2] was 1.01, the “Susceptibility of Tbsnm1 null mutants relative to wild type / control (fold more susceptible)” value [2] was “no significant difference” and the EC50 [2] was 2410 ± 160 nM. The EC50 (L. major promastigotes; [10]) was 348 ± 166 nM, the “T. cruzi SI” value (T. cruzi epimastigotes) was less than 1 and the EC50 (T. cruzi epimastigotes; epimastigotes, 14 days) was 2180 ± 670 nM. For the same compound, the “Fold difference in EC50 Tbntr++ relative to control” value [5] was 3315 ± 540 (1.13), the EC50 [5] was 3320 nM and the “T. brucei SI” value [1] was less than 1. For the same compound, the EC50 [1, 14] was 2300 ± 60 nM, the EC50 [1, 11] was 2940 ± 420 nM and the EC50 [1, 13] was 2300 ± 60 nM. For the same compound, the EC50 [7] was less than 400 nM, the “Fold difference in EC50 Tbcpr2++ relative to control” value [8] was 3556 ± 96 (1.21) and the EC50 [8] was 3560 nM.
`O=C1C(F)=C(N2CC2)C(=O)C(N2CCOCC2)=C1N1CC1` [ABQ14] gave an EC50 (L. major promastigotes; Leishmania major, 144 h) of 2270 ± 17 nM, an EC50 (T. cruzi epimastigotes) of 445 ± 30 nM and an EC50 [1, 9] greater than 10000 nM.
With `O=C1C(Br)=C(N2CC2)C(=O)C(Br)=C1N1CC1` [ABQ3] the EC50 (L. major promastigotes; [10]) was 199 ± 4 nM, the EC50 (T. cruzi epimastigotes; epimastigotes, 14 days) was 6200 ± 1160 nM and the EC50 [1, 14] was 400 ± 30 nM.
